Values quoted from earlier work in patent US7169813B2, “4-oxo-fenretinide, administered alone and in combination with fenretinide, as preventive and therapeutic agent for cancer” (Fondazione IRCCS “Istituto Nazionale Dei Tumori”, priority 2004, dated 2007).

Tests used:
[1] = test system: different tumor cell lines; details: cited from earlier work
human ovarian carcinoma = details: mice bearing a human ovarian carcinoma, cited from earlier work

In the case of `COc1ccc(NC(=O)\C=C(C)/C=C/C=C(C)\C=C\C2=C(C)CCCC2(C)C)cc1` (stereo in doubt) [4-MPR, N-(4-methoxyphenyl)retinamide], the inhibiting proliferation [1] is listed as “ineffective”, the antitumor effect (human ovarian carcinoma) is listed as “no antitumor effect” and the “effect on 4-HPR activity” value (human ovarian carcinoma; with 4-HPR) is listed as “did not increase 4-HPR activity”.
